{
  "source": "ChEMBL document CHEMBL2046320",
  "about": "“Bisubstrate analog inhibitors of 6-hydroxymethyl-7,8-dihydropterin pyrophosphokinase: new lead exhibits a distinct binding mode” (Bioorg Med Chem, 2012)",
  "key": {"[1]": {"biological_target": "T1, 2-amino-4-hydroxy-6-hydroxymethyldihydropteridine pyrophosphokinase (Escherichia coli (strain K12), UniProt P26281)", "T1 sequence (P26281 whole entry)": "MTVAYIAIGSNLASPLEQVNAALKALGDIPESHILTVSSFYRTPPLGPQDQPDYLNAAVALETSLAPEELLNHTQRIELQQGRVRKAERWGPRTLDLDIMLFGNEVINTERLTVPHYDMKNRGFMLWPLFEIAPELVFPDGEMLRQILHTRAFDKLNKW", "assay": "Binding affinity to Escherichia coli HPPK at pH 8.3 by fluorometric titration"}, "[2]": {"biological_target": "T1, 2-amino-4-hydroxy-6-hydroxymethyldihydropteridine pyrophosphokinase", "assay": "Inhibition of Escherichia coli HPPK using [alpha-33P]ATP after 30 mins"}},
  "data": [
    {"molecule": "CC1(C)Nc2nc(N)[nH]c(=O)c2N=C1C(=O)NCC(=O)NCCS(=O)(=O)C[C@H]1O[C@@H](n2cnc3c(N)ncnc32)[C@H](O)[C@@H]1O", "values": [
      {"measurement": "Kd", "setting": "[1]", "result": 4.16, "unit": "µM"},
      {"measurement": "IC50", "setting": "[2]", "result": 9.53, "unit": "µM"}
    ]}
  ]
}
